Common to all, as to assay type: physicochemical
Data set [1] can be described thus: decomposition of rocuronium bromide in water at room temperature. Conditions: aqueous solution, in 24 hours. From the text: While freeze drying of the aqueous solution did reduce the isobutyl acetate level to an acceptable level of 0.26%, the impurity levels rose to 0.33%. […] This inherent instability in aqueous solution may explain thc observed rise in the impurities level in our hands.

Data set [2] can be described thus: nature of product freeze dried from unbuffered degassed water (Example 5). Conditions: Example 5: dissolved in degassed water and freeze dried, no buffer. As for the experimental part:
Rocuronium bromide (2 grams) prepared according to example 1 and dried in a manner similar to entries 1 and 2 in table 2 (see example 4), was dissolved in degassed water (30 ml) and freeze dried.

Data set [3] can be described thus: hygroscopicity test at relative humidity of about 45%. Conditions: within 24 hours, sample containing 3.1% acetic acid (stabilized solid of the invention). How it is done:
In another aspect, the present invention relates to an improved process for preparing a stable solid comprising substantially pure rocuronium bromide, which is substantially non-hygroscopic, because when subjected to hygroscopisity test at relative humidity of about 45%, a sample containing 3.1% acetic acid absorbed only about 2% water within 24 hours.

On to `C=CC[N+]1(C2CC3C4CC[C@H]5C[C@H](O)C(N6CCOCC6)C[C@]5(C)C4CC[C@]3(C)[C@H]2OC(C)=O)CCCC1.[Br-]` (stereo partly drawn) [rocuronium bromide, 1-[(2β,3α,5α,16β,17β)-17-acetoxy-3-hydroxy-2-(4-morpholinyl)-androstan-16-yl-]-1-(2-propenyl)pyrrolidinium bromide], for which, in data set [1], the “decomposition rate in water” value is given as 0.25-0.5%. Moreover, the hygroscopicity of product entry in data set [2] is reported as “highly hygroscopic”. The water absorbed result in data set [3] is “about 2%”.

Values taken from patent publication US20060058275A1, “Processes for preparing stabilized, highly pure rocuronium bromide” (priority 2004, published 2006).
